Several values for one entry are separate records, joined by “and”; a condition that tells them apart may be missing. Identical values can stand only once. Like-named read-outs stand apart in the source and are kept apart here.

The IC50 is the concentration at which inhibition is half-maximal. By Km is commonly meant the concentration of substrate that gives half-maximal velocity. One may read the Cmax as the peak of the concentration-time curve. A word on the Ki: it is a dissociation constant, usually derived from enzyme kinetics or from competition with a known ligand. Low readings indicate higher affinity, high ones lower affinity. As usually defined, the CL/F is clearance divided by bioavailability, as obtained after extravascular dosing. The AUC(0-t) is exposure summed from dosing to a finite time, without extrapolation to infinity. As a reminder, the half-life is the time in which the quantity being followed falls by half.

Details of data set [1]: method as in PMID 15608138. Conditions: rats or P-gp-knockout mice; cited from earlier work.
Data set [2] has as its system mouse BCRP. Further details: method as in PMID 15608138. Conditions: cited from earlier work.
Data set [3] deals with T1, human BCRP (Homo sapiens, UniProt Q9UNQ0).
T1 sequence (Q9UNQ0 1-655): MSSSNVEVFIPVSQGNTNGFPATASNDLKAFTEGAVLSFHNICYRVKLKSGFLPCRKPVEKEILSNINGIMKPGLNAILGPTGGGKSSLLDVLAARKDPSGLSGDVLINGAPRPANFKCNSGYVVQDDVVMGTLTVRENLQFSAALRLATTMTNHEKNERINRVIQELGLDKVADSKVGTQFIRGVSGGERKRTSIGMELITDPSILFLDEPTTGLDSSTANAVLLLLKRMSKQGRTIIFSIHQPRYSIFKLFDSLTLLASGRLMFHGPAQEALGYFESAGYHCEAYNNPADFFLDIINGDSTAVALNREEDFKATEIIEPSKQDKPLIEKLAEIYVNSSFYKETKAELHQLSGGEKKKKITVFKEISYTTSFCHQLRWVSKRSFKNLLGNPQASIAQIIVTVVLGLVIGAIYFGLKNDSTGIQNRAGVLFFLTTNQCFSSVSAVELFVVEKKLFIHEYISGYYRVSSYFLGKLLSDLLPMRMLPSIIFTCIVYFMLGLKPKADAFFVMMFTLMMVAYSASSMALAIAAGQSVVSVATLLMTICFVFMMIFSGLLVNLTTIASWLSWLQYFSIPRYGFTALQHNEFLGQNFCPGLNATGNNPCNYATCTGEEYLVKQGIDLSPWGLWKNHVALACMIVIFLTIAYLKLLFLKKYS
Further details: expressed in transfected cells; host or cells: MDCKII (Madin-Darby canine kidney II) cells; method as in PMID 15608138. To be noted: cited from earlier work.

Data set [4] concerns HeLa cells. Nature of the data set: FACS cellular accumulation of mitoxantrone (flow cytometry). The data set is classed as cell-based, human. Conditions: for percentage of cells with a significant uptake of MX, higher than at 2 h of treatment with MX alone: 1 μM MX alone. The procedure:
The cellular accumulation of quercetin was measured by FACSCalibur flow cytometry (Becton Dickinson, San Jose, CA, USA). For FACScan analysis, 2 × 10^5 HeLa cells/well were seeded into 6-well cell culture plates on the day before the experiment. On the following day, cells were treated with vehicle or quercetin and 1 μM MX. A time course experiment was conducted on HeLa cells following treatment with quercetin (1 and 100 μM) for 2, 4, and 6 h. After treatment, the cells were harvested by trypsinization and transferred to a fluorescence-activated cell sorting (FACS) tube, pelleted by centrifugation (1500 rpm, 5 min), and then resuspended in 200 μL of PBS. Flow cytometry analysis was performed using red fluorescence. A minimum of 10,000 cells were acquired per sample.
For orientation: Flow cytometry measures light scatter and fluorescence of single cells or particles in a stream.

In data set [5] the test system is HeLa cells. Nature of the data set: Cytotoxicity assay (CCK-8) of mitoxantrone with or without BCRP inhibitor. The data set is classed as cell-based, human. Conditions: for IC50: 24 h, CCK-8. How it is done: Dojindo Molecular Technologies, Kumamoto, Japan) following the manufacturer’s instructions. HeLa cells (at a density of 1 × 10^4 cells per well) were seeded and cultured overnight in 96-well plates. […] The absorbance was measured at a wavelength of 450 nm using a microplate reader (BioTeK, Highland Park, WI, USA).

Data set [6] concerns the target T1, human BCRP. Conditions: read-out: Km value for prazosin; BCRP-mediated transport; cited from earlier work.
The subject of data set [7] is BCRP. Further details: method as in PMID 21354800. To be noted: MCF-7/MX cells; read-out: IC50, Hoechst 33342 accumulation; cited from earlier work.
Data set [8] relates to BCRP. Set-up: method as in PMID 21354800. To be noted: MDCKII/BCRP cells; read-out: IC50, Hoechst 33342 accumulation; cited from earlier work.
On the set-up of data set [9]: method as in PMID 15948033. Conditions: 10 mg/kg oral administration to rats; cited from earlier work.
Data set [10] deals with T1, human BCRP. Description: Bi-directional transport of prazosin in MDCKII/BCRP cells. The data set is classed as cell-based. Set-up: expressed in transfected cells; host or cells: MDCKII (Madin-Darby canine kidney II) cells. How it is done: At the end of the incubation, aliquots (300 μL for the apical chamber and 500 μL for the basolateral chamber) of the incubation mixture were collected from the donor and receiver chambers and subjected to LC-MS/MS assays. […] Briefly, an aliquot (50 μL) of a sample was vortex-mixed with an acetonitrile solution containing glipizide (300 ng/mL, internal standard); this was followed by centrifugation (16,100 × g for 5 min at 4 °C). An aliquot (5 μL) of the supernatant was directly injected into the LC-MS/MS system. […] For the internal standard glipizide, the transition m/z 445.[…]/z 320.9 was used. […] The efflux ratio (ER) was calculated by dividing the B-to-A apparent permeability coefficient (Papp, B-to-A) by the A-to-B apparent permeability coefficient (Papp, A-to-B). In the inhibition studies, the percentage of the control efflux ratio (%ER) was also calculated by dividing the value for ER in the presence of the inhibitor by that in the absence of the inhibitor (i.e., in the control).

Data set [11] can be described thus: in vivo. Set-up: species or system rats. To be noted: rat. The procedure: To determine whether quercetin affects the intestinal efflux mediated by BCRP, we divided the male rats into two groups: A sulfasalazine (a substrate of BCRP) control group and a quercetin pretreatment plus sulfasalazine group (n = 4, each). Considering the similar expression levels of intestinal BCRP between male and female rats, male rats were used in this study. Briefly, overnight fasted male SD rats were anesthetized by intramuscular administration of 50 mg/kg tiletamine HCl/zolazepam HCl (Zoletil®) (Vibrac, TX, USA) and 10 mg/kg xylazine HCl (Rompun®, Bayer, Puteaux, France). While the rats were anesthetized, the femoral artery (for blood sampling) and vein (for supplementing body fluids) were catheterized using polyethylene tubing (PE 50; Clay Adams, Parsippany, NJ, USA). Upon recovery from anesthesia (i.e., after 4 h), quercetin was administered by oral gavage at 10 mg/kg (or 0 mg/kg in the case of the sulfasalazine control group; DMSO/polyethylene glycol 400/saline [1:4:5 (v/v/v)]). The pretreatment dose of quercetin was determined based on the compound solubility in the dosing vehicle and the likely daily dose of human dietary supplement. […] Immediately after each blood collection, an identical volume of saline was intravenously provided to the animal to compensate for fluid loss. To prevent blood clotting during blood collection, the cannula was filled with 25 IU/mL heparinized saline. The plasma fraction was separated from the blood samples by centrifugation (16,100 × g for 5 min at 4 °C) and stored at -80 °C until the LC-MS/MS assay. […] Briefly, an aliquot (50 μL) of a sample was vortex-mixed with an acetonitrile solution containing glipizide (300 ng/mL, internal standard); this was followed by centrifugation (16,100 × g for 5 min at 4 °C). An aliquot (5 μL) of the supernatant was directly injected into the LC-MS/MS system. […] For the internal standard glipizide, the transition m/z 445.[…]/z 320.9 was used. […] Standard non-compartmental pharmacokinetic analysis was carried out using WinNonlin Professional 5.0.1 software (Pharsight, Cary, NC, USA) to calculate the pharmacokinetic parameters, including the peak concentration (Cmax), time of the peak concentration (tmax), elimination half-life (t1/2), area under the plasma concentration-time curve from time zero to the last sampling point, 8 h (AUC8h), and elimination clearance (CL/F).

On the set-up of data set [12]: method as in PMID 22711747. Conditions: BCRP-knockout rats, oral; cited from earlier work.

As for `O=c1cc(-c2ccccc2)oc2c1ccc1ccccc12` [7,8-benzoflavone], the “effect of coadministered flavonoid on the pharmacokinetics of topotecan” value in [1] is recorded as “no significant effects”. Besides, in [2], the “inhibition of mouse BCRP” value was “weak inhibitors”. Also, the “inhibition of human BCRP” value in data set [3] is recorded as “potent inhibitors”.
For `COc1ccc2c3c([nH]c2c1)[C@H](CC(C)C)N1C(=O)[C@H](CCC(=O)OC(C)(C)C)NC(=O)[C@@H]1C3` [Ko143], the “internalization of MX when co-administered with inhibitor” value in [4] (1 μM Ko143 with MX) is on record as “considerably high number of cells that internalized MX”.
Consider `O=c1cc(-c2ccccc2)oc2cc(O)cc(O)c12` [chrysin], for which, in data set [1], the “effect of coadministered flavonoid on the pharmacokinetics of topotecan” value was “no significant effects”. The “inhibition of mouse BCRP” value in [2] is on record as “weak inhibitors”. Moreover, the “inhibition of human BCRP” value in data set [3] was “potent inhibitors”.
As to `O=C1c2c(O)ccc(O)c2C(=O)c2c(NCCNCCO)ccc(NCCNCCO)c21` [mitoxantrone], the “percentage of cells with a significant uptake of MX, higher than at 2 h of treatment with MX alone” value is given as 17.2% in data set [4] (4 h) and 27.1% in data set [4] (6 h). In addition, the “cellular uptake of MX, higher than at 2 h of treatment with MX alone” value in data set [4] (1 μM MX with 1 μM quercetin, 4 h) is listed as 30.2%; in data set [4] (1 μM MX with 1 μM quercetin, 6 h) it was 35.9%; in [4] (1 μM MX with 100 μM quercetin, 4 h), 45.3%; in [4] (1 μM MX with 100 μM quercetin, 6 h), 67.4%. For the same compound, the 50% inhibitory concentration (IC50) turned out to be 0.62 µM in [5] (Homo sapiens, in the presence of Ko143 (1 μM)); 5.83 µM in [5] (Homo sapiens, HeLa, mitoxantrone alone); 1.13 µM in data set [5] (Homo sapiens, HeLa, with 1 μM quercetin); 0.478 µM in data set [5] (Homo sapiens, HeLa, with 100 μM quercetin); 0.48 µM in [5] (with 100 μM quercetin). For the same compound, the “IC50 of mitoxantrone as percentage of the control value (mitoxantrone alone)” value is 19.3% in data set [5] (with 1 μM quercetin); 8.2% and 8.23% in data set [5] (with 100 μM quercetin).
For the compound `COc1cc2nc(N3CCN(C(=O)c4ccco4)CC3)nc(N)c2cc1OC` [prazosin, Prazosin], in data set [6], the Km was 128 µM.
For the compound `O=c1c(O)c(-c2ccc(O)c(O)c2)oc2cc(O)cc(O)c12` [quercetin, Quercetin], the IC50 in [7] was 7.6 µM. Moreover, in data set [8], the IC50 is 6.9 µM. Further, in data set [9], the Cmax is 210 ng/mL and the oral bioavailability is listed as 5.3%. Also, in data set [10], the IC50 came out at 4.22 µM and the affinity, expressed as Ki, was 3.91 µM.
In data set [11] (male, SD, po, 2 mg/kg), `O=C(O)c1cc(/N=N/c2ccc(S(=O)(=O)Nc3ccccn3)cc2)ccc1O` [sulfasalazine] came in with an AUC8h of 44500 ± 11800 ng·min/mL, an apparent clearance (CL/F) of 33.2 ± 10.2 mL/min/kg, a Cmax of 179 ± 23.0 ng/mL and a t1/2 of 4.03 ± 1.34 h. This compound came in with a tmax in data set [11] (male, SD, po, 2 mg/kg) of 0.375 ± 0.145 h. This compound also showed an AUC(0-t) in data set [11] (male, SD, po, 2 mg/kg, AUC8h) of 428 ng·h/mL. In addition, the apparent clearance CL/F in [11] (male, SD, po, 2 mg/kg, CL/F) stood at 52.5 ± 33.5 mL/min/kg. Further, the peak level in data set [11] (male, SD, po, 2 mg/kg, Cmax) (Cmax) was 122 ± 23.2 ng/mL. Further, the half-life in data set [11] (male, SD, po, 2 mg/kg, t1/2) stood at 6.38 ± 1.85 h. Also, the tmax in data set [11] (male, SD, po, 2 mg/kg, tmax) is 0.5 h. In addition, the “change in the elimination half-life (t1/2) of sulfasalazine, quercetin pretreatment vs control” value in data set [11] is “no significant change”. For the same compound, in data set [12], the “increase in absorption (AUC8h, Cmax) of sulfasalazine in knockout rats” value is “approximately 20 fold”.

Source of the values: paper PMC7285070, “Quercetin Is a Flavonoid Breast Cancer Resistance Protein Inhibitor with an Impact on the Oral Pharmacokinetics of Sulfasalazine in Rats” (Pharmaceutics, 2020).
